Source: patent US7326721B2 (Hypnion, Inc., priority 2003, dated 2008)
“And” between values parts separate entries of the source, which are not always exact repeats. Equal entries are not always repeated. Where two headings read alike, the source gives them in different places.

How the values were obtained:
[1] = molecular target: hERG (Homo sapiens, UniProt Q12809)
[2] = molecular target: T1, M2 muscarinic receptor (Homo sapiens, UniProt P08172); test: Muscarinic M2 binding assay; parameters: purchased PerkinElmer, Inc., Wellesley, Mass; host or cells: CHO cells; settings: read-out: Ki M2
T1 sequence (P08172 1-466): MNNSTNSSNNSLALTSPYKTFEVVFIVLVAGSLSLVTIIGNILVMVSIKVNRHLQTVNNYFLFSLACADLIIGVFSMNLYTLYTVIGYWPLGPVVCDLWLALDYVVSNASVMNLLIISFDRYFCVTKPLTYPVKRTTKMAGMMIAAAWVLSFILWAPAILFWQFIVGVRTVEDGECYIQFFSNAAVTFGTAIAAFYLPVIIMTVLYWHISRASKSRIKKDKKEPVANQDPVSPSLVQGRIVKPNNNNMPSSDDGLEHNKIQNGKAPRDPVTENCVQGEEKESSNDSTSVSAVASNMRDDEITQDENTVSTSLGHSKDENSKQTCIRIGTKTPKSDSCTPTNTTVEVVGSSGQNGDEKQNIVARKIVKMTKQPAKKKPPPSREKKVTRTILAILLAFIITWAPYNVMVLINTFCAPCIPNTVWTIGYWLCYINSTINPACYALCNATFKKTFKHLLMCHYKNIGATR

[3] = test system: adult male Wistar rats; test: SCORE-2000 sleep-wakefulness, locomotor activity and body temperature monitoring; format: in vivo, rat
[4] = molecular target: T2, M1 muscarinic receptor (Homo sapiens, UniProt P11229); test: Muscarinic M1 binding assay ([3H]-scopolamine, N-methyl chloride); parameters: purchased PerkinElmer, Inc., Wellesley, Mass; host or cells: CHO cells; settings: read-out: Ki M1
T2 sequence (P11229 1-460): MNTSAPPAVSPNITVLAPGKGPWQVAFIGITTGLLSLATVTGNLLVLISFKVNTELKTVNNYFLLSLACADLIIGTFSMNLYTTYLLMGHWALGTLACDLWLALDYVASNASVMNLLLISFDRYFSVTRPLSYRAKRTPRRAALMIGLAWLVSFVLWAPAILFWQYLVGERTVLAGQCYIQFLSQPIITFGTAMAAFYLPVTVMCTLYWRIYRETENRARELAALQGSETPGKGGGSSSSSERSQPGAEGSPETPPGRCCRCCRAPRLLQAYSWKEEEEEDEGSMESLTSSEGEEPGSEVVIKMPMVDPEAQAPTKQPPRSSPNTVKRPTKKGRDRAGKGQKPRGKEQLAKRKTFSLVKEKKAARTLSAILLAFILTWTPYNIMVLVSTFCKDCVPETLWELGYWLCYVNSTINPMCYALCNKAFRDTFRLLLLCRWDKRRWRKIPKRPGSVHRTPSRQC

[5] = molecular target: T3, H1 histamine receptor (Bos taurus, UniProt P30546); test: Histamine H1 competitive binding assay ([3H]pyrilamine); parameters: species or system bovine; settings: read-out: Ki H1
T3 construct: the receptors were obtained from bovine cerebellar membrane tissue; from tissue; host or cells: bovine cerebellar membranes

[6] = test system: male Wistar rats; format: in vivo
Experimental: The Irwin screen can provide useful information on potential side effects of compounds on general physiological and behavioural functions. The screen was conducted by administering the test compounds orally in 0.25% aqueous methylcellulose using male Wistar rats, a frequently used species in such studies and for which background data are readily available.
The Irwin screen tests for numerous parameters in animals that have been administered the test compound. For example, the screen can include: in-cage effects, e.g., dispersion, respiratory rate, locomotor activity, restlessness, fighting, alertness, apathy, and exophthalmus; in-arena effects, e.g., transfer arousal, spatial locomotion, ptosis, startle, tail elevation, piloerection, touch escape, positional passivity, catalepsy, tighting reflex, visual placing, grip strength, pinna, corneal, pain response, and wire manoeuvre; parameters observed in handling, e.g., cyanosis, cutaneous blood flow, hypothermia, body tone, pupil size, light-pupil response, lacrimation, grooming, red staining, salivation, and provoked biting; general scores e.g., fearfulness, irritability, abnormal gait, abnormal body carriage, tremors, twitches, convulsions, bizarre behaviour, writhing, vocalisation, diarrhoea, number of defaecations, number of urinations, moribund, lethality, and abnormalities detected. Further details can be found in Irwin, S; Comprehensive observational assessment: I a. A systematic, quantitative procedure for assessing the behavioural and physiological state of the mouse.
Irwin screening of the disclosed sleep-inducing agents was performed by Covance (Princeton, N.J.) according to Irwin, above; Covance Standard Operating Procedure (current revision of SOP PHARM 8.10); relevant regulatory authority guidelines ICH (International Committee for Harmonization) Guideline (Topic S7A; CPMP/ICH/539/00) on Safety Pharmacology Studies for human pharmaceuticals (November 2000); and all procedures carried out on live animals were subject to the provisions of United Kingdom Law, in particular the Animals (Scientific Procedures) Act, 1986. which obliges all UK laboratories to maintain a local ethical review process to ensure that all animal use in the establishment is carefully considered and justified; that proper account is taken of all possibilities for reduction, refinement or replacement and that high standards of accommodation and care are achieved.
All test compound formulations were prepared on the day of dosing by Covance Harrogate Dispensary. The test compounds were formulated in 0.25% aqueous methylcellulose at the highest concentration required. Lower doses were obtained by serial dilution of the highest concentration using 0.25% aqueous methylcellulose. Dose levels are expressed in terms of the amount of test compound administered without regard to purity or active content. All formulations were stored at room temperature (nominally 10 to 30° C.) in sealed containers and protected from light.
An adequate number of male Wistar (Crl:WI(Glx/BRL/Han) BR:WH) rats were obtained from Charles River Ltd. (Margate, Kent, United Kingdom). The rats were approximately 5 weeks of age and weighed between 150 and 170 g on arrival. The animals were housed in groups of no more than six in polypropylene cages (33×15×13 cm) or (45×28×20 cm) with solid floors and Grade 10 woodflakes (Datesand Ltd., Cheshire, United Kingdom) as bedding. The cages were cleaned and dried before use. Aspen chew blocks were placed within the cages as a form of environmental enrichment. Routinely, holding rooms were maintained within acceptable limits for temperature and relative humidity (nominally 19 to 25° C. and 40% to 70%, respectively). These rooms were illuminated by fluorescent light for 12 hours out of each 24 hour cycle and designed to receive at least 15 fresh air changes per hour. […]

[7] = molecular target: M3 muscarinic receptor (Homo sapiens, UniProt P20309); test: Muscarinic M3 binding assay; parameters: purchased PerkinElmer, Inc., Wellesley, Mass; host or cells: CHO cells; settings: read-out: Ki M3
Sequence of M3 muscarinic receptor (P20309 whole entry): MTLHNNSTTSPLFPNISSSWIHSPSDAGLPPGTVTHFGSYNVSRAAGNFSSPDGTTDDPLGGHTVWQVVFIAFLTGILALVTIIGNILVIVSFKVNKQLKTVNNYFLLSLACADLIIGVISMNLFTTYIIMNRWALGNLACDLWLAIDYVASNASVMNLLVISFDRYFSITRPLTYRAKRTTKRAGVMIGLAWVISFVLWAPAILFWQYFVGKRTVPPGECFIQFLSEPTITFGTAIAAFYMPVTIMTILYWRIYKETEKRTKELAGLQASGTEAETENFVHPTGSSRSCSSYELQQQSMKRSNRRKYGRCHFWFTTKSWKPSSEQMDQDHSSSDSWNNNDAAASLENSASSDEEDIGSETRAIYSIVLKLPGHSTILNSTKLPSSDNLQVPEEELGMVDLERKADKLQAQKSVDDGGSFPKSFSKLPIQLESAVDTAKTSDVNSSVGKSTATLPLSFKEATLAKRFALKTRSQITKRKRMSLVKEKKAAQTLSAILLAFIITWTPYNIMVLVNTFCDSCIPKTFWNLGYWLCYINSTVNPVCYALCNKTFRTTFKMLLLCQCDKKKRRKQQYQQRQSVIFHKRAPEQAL

Sequence of hERG (Q12809 whole entry): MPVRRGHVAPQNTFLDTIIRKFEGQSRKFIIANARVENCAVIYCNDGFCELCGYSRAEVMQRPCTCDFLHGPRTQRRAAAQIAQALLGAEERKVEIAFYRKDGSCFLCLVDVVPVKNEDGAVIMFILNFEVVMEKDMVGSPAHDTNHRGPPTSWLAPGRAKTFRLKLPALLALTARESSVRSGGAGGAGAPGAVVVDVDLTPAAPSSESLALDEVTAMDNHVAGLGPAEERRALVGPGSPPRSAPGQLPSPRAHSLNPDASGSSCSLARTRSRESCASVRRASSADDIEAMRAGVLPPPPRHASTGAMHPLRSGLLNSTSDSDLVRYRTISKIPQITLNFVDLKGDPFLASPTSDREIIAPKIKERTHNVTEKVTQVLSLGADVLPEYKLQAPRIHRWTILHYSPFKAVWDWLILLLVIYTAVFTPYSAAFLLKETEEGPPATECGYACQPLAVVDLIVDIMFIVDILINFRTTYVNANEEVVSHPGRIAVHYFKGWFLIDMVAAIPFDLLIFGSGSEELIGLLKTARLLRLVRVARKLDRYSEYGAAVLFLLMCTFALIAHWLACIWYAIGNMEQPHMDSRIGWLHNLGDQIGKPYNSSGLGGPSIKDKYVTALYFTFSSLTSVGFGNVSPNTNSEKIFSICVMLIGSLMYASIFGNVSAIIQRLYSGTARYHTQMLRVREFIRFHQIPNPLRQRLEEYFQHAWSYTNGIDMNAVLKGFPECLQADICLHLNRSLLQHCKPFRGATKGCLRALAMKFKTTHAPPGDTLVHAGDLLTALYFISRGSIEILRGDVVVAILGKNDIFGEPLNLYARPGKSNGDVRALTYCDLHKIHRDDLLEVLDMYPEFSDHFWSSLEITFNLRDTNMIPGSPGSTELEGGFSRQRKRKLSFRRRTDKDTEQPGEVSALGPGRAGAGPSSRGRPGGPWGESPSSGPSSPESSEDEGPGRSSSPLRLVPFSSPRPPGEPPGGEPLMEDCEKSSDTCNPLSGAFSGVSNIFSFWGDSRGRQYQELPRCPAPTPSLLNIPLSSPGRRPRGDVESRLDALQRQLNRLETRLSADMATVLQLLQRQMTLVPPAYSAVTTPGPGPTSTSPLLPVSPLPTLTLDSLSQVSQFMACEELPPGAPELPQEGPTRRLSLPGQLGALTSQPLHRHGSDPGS
T3 sequence (P30546 whole entry): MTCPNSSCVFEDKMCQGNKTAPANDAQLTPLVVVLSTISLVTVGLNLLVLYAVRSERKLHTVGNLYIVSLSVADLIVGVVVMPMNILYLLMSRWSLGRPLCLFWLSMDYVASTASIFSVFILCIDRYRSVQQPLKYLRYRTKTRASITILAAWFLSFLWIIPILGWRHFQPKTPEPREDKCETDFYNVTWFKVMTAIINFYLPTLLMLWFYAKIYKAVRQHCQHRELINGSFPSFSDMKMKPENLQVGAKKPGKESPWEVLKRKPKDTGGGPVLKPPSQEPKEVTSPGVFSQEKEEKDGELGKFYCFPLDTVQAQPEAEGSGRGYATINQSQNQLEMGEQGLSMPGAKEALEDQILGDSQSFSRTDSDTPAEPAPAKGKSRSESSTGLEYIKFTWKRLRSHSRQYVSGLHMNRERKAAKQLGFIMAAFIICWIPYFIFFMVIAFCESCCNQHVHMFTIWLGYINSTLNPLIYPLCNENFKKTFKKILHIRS

| SMILES | Ki [2] | LUSB ([3]; dose 10 mg/kg oral at CT-18) | NREM ([3]; dose 10 mg/kg oral at CT-18) | LUSB ([3]; dose 30 mg/kg oral at CT-18) | NREM ([3]; dose 30 mg/kg oral at CT-18) | Ki [4] | Ki [5] | Irwin at mg/kg dose ([6]; rat, in vivo) | Ki [7] | hERG at micromolar (% blocking of the hERG channel) ([1]; human, 10 µM, pH 7.4) | LUSB ([3]; dose 3 mg/kg oral at CT-18) | NREM ([3]; dose 3 mg/kg oral at CT-18) | also measured |
| --- | --- | --- | --- | --- | --- | --- | --- | --- | --- | --- | --- | --- | --- |
| CC(C)(CCN1CCC(=C2c3ccccc3COc3ccccc32)CC1)C(=O)O [Compound 70a] | 3.31 µM and 1.36 µM | 3.7 min | 13.2 min | 6 min | 33.6 min | 0.811 µM | 0.0368 µM | clean |  |  |  |  | hERG at micromolar (% blocking of the hERG channel) ([1]; human, 1 µM, pH 7.4): 5.1% @ 1; LUSB ([3]; dose 45 mg/kg oral at CT-18): 12.1 min; NREM ([3]; dose 45 mg/kg oral at CT-18): 29.3 min |
| O=C(O)C1(CCN2CCC(=C3c4ccc(Cl)cc4COc4ccccc43)CC2)CC1 [Compound 59b] | > 10 µM | 12.8 min | 42.4 min | 6.1 min | 23.1 min | > 10 µM | 0.0667 µM | clean | > 10 µM | 28% @ 10 |  |  |  |
| O=C(O)C1(CN2CCC(=C3c4ccccc4COc4ccccc43)CC2)CC1 [Compound 69b] | > 10 µM | 6.2 min | 44.3 min | 14 min | 41.6 min | > 10 µM | 0.0549 µM | clean | > 10 µM | 12.6% @ 10 | 5.9 min | 14.9 min | LUSB ([3]; dose 15 mg/kg oral at CT-18): 14.4 min; NREM ([3]; dose 15 mg/kg oral at CT-18): 43.4 min; LUSB ([3]; dose 20 mg/kg oral at CT-18): 11.6 min; NREM ([3]; dose 20 mg/kg oral at CT-18): 39.4 min |
| COc1ccc2c(c1)COc1ccccc1C2=C1CCN(CC(C)(C)C(=O)O)CC1 [Compound 50a] | > 10 µM | 9.3 min | 32.6 min | 11.2 min | 41.9 min | > 10 µM | 0.0272 µM | clean | > 10 µM | 9.7% @ 10 | 4.8 min | 12.7 min |  |
| O=C(O)C1(CCN2CCC(=C3c4ccccc4COc4ccccc43)CC2)CC1 [Compound 70b] |  | 8.3 min |  |  |  |  |  |  |  |  |  |  | hERG at micromolar (% blocking of the hERG channel) ([1]; concentration not given): 50.2%; Irwin at mg/kg dose ([6]; 10 mg/kg oral): clean; Irwin at mg/kg dose ([6]; 30 mg/kg oral): clean; Irwin at mg/kg dose ([6]; 100 mg/kg oral): some side effects |
| O=C(O)C1(CCN2CCC(=C3c4ccc(F)cc4COc4ccccc43)CC2)CC1 [Compound 61b] | 3.09 µM | 14.6 min | 34.8 min | 9.7 min | 57.4 min | 0.569 µM | 0.0122 µM |  | > 10 µM | 85.9% @ 10 | 3.6 min | 11.3 min |  |
| O=C(O)C1(CN2CCC(=C3c4ccc(F)cc4COc4ccccc43)CC2)CC1 [Compound 49b] | > 10 µM | 13.1 min | 47.3 min | 15.9 min | 43.2 min | > 10 µM | 0.0614 µM |  | > 10 µM | 3.1% @ 10 | 10.4 min | 22.5 min |  |
| O=C(O)CN1CCC(=C2c3ccccc3COc3ccccc32)CC1 [Compound 71e] | 5.13 µM |  |  | 4.1 min | 34.5 min | 12.1 µM | 0.0607 µM | 10, 30 clean; 100 many side effects | > 10 µM |  |  |  | hERG at micromolar (% blocking of the hERG channel) [1]: 3.6% @ 1; Irwin at mg/kg dose ([6]; 30 mg/kg oral): clean; Irwin at mg/kg dose ([6]; 100 mg/kg oral): many side effects |
| O=C(O)C1(CN2CCC(=C3c4ccc(Cl)cc4COc4ccccc43)CC2)CC1 [Compound 51b] | > 10 µM | 8.3 min | 45 min | 128 min | 60.4 min | > 10 µM | 0.072 µM |  | > 10 µM | 23% @ 10 | 8.4 min | 34.7 min |  |
| COc1ccc2c(c1)COc1ccccc1C2=C1CCN(CCC(C)(C)C(=O)O)CC1 [Compound 62a] | > 10 µM | 7.4 min | 23.2 min | 9.1 min | 25.2 min | > 10 µM | 0.128 µM |  | > 10 µM | 13.6% @ 10 |  |  |  |
| COc1ccc2c(c1)COc1ccc(F)cc1C2=C1CCN(CC(C)(C)C(=O)O)CC1 [Compound 47a] | > 10 µM | 16.7 min | 41.1 min | 10 min | 56.9 min | > 10 µM | 0.111 µM |  | > 10 µM | 1% @ 10 | 5.5 min | 32.3 min | LUSB ([3]; dose 1 mg/kg oral at CT-18): 2.9 min; NREM ([3]; dose 1 mg/kg oral at CT-18): 5.5 min |
